From US12043670B2, “Anti-BCMA antibody-drug conjugates and methods of use” (Eisai R&D Management Co., Ltd., priority 2020, dated 2024)
Like-named read-outs stand apart in the source and are kept apart here.

Experiments:
OPM2 cells = assay: CellTiter-Glo cell viability, OPM2 (normal serum); type: cell-based, human; settings: for GI50: Homo sapiens
[1] = tested on: splicing of Ad2.2 pre-mRNA in HeLa nuclear extract; assay: In vitro splicing (IVS), qPCR readout, Ad2.2 substrate; type: biochemical
Method: (§1) To evaluate payload activity in a cell-free system, an in vitro splicing assay was performed. The payloads were incubated with nuclear extracts and pre-mRNA substrate minigenes.
(§2) HeLa nuclear extract preparation: HeLa S3 cell pellets were resuspended in hypotonic buffer (10 mM HEPES pH 7.9, 1.5 mM MgCl2, 10 mM KCl, 0.2 mM PMSF, 0.5 mM DTT) and the suspension was brought up to a total of 5 packed cell volume (PCV). After centrifugation, the supernatant was discarded, and the cells were brought up to 3 PCV with hypotonic buffer and incubated on ice for 10 min. Cells were lysed using a dounce homogenizer and then centrifuged. The supernatant was discarded, and the pellet was resuspended with ½ packed nuclear volume (PNV) of low salt buffer (20 mM HEPES pH 7.9, 1.5 mM MgCl2, 20 mM KCl, 0.2 mM EDTA, 25% glycerol, 0.2 mM PMSF, 0.5 mM DTT), followed by ½ PNV of high salt buffer (same as low salt buffer except 1.4 M KCl). The nuclei were gently mixed for 30 min before centrifuging. The supernatant (nuclear extract) was then dialyzed into storage buffer (20 mM HEPES pH 7.9, 100 mM KCl, 0.2 mM EDTA, 20% glycerol, 0.2 mM PMSF, 0.5 mM DTT). Protein concentration was determined using NanoDrop 8000 UV-Vis spectrophotometer (ThermoFisher Scientific). […]

EJM cells = assay: 6-day CellTiter-Glo cell viability, EJM; type: cell-based, human
[2] = tested on: splicing of Ad2.1 pre-mRNA in HeLa nuclear extract; assay: In vitro splicing (IVS), qPCR readout, Ad2.1 substrate; type: biochemical
Method: as §1, §2

Caco-2 permeability = type: in vitro ADME; settings: human
Method: Caco-2 cells were cultured for 21 days in transwell 24-well plates at 37° C., 95% humidity, 5% CO2. Integrity of cell monolayer was confirmed by TEER (transepithelial electrical resistance) and Lucifer yellow. Payloads were spiked in duplicate at 10 μM, separately, on both sides of the cell monolayer. Permeability rates from the apical to basolateral (A-B) direction and the basolateral to apical (B-A) direction were determined by sampling aliquots from both chambers immediately after treatment (t=0) and following incubation for 2 hours. Samples were protein precipitated with organic solvent containing internal standard and analyzed by LC-MS/MS (SCIEX; API 5500). The area ratio responses of payload/internal standard over time in both directions were used to generate permeability (cm/sec) values. Efflux ratio was calculated by dividing B-A/A-B. Control compounds for low and high permeability and efflux behaved as expected.

U266B1 cells = assay: 6-day CellTiter-Glo cell viability, U266B1; type: cell-based, human
PAMPA permeability = type: in vitro ADME; settings: read-out: Stability, Mean, Perm PAMPA
AMO-1 cells = assay: 6-day CellTiter-Glo cell viability, AMO-1; type: cell-based, human

## CC[C@H](O)[C@@H](C)[C@H]1O[C@@H]1C[C@@](C)(O)/C=C/C=C(\C)[C@H]1OC(=O)C[C@H](O)CC[C@@](C)(O)[C@@H](OC(=O)N2CCNCC2)/C=C/[C@@H]1C [D1, (2S,3S,6S,7R,10R,E)-7,10-dihydroxy-2-((R,2E,4E)-6-hydroxy-7-((2R,3R)-3-((2R,3S)-3-hydroxypentan-2-yl)oxiran-2-yl)-6-methylhepta-2,4-dien-2-yl)-3,7-dimethyl-12-oxooxacyclododec-4-en-6-yl piperazine-1-carboxylate]
OPM2 cells; OPM-2, 96 h, read-out: CTGlo Mean GI50 OPM2 96 h
  GI50: 287 nM
OPM2 cells; OPM-2, 144 h
  GI50: 117 nM
OPM2 cells; OPM2 cells, 6 days
  AUC (nM * % relative viability): 649.8734 nM * % relative viability
OPM2 cells; OPM2 cells, 6 days, CellTiter-Glo
  LD50: 256.8053 nM
OPM2 cells; OPM2 cells, 6 days, negative = cell death vs T0
  RminAve: −99.7805%
OPM2 cells; payload alone, OPM2, 96 h
  CTGlo Mean LD50 OPM2 96 h: 67.1 nM
[1]
  IC50: 25 nM
EJM cells; EJM cells, 6 days
  AUC (nM * % relative viability): 664.163 nM * % relative viability
EJM cells; EJM cells, 6 days, CellTiter-Glo
  LD50: 303.5191 nM
EJM cells; EJM cells, 6 days, negative = cell death vs T0
  RminAve: −99.0579%
EJM cells; Homo sapiens, EJM, 144 h
  GI50: 140 nM
[2]
  IC50: 16.5 nM
Caco-2 permeability; B-A/A-B
  efflux ratio at 2 h, 10 μM: 1.5
Caco-2 permeability; apical to basolateral, 10 μM, 2 hours, read-out: Permeability, Mean, Caco-2 A-B Perm
  Papp A→B at 2 h, 10 μM: 0.2 ×10⁻⁶ cm/s
Caco-2 permeability; basolateral to apical, 10 μM, 2 hours, read-out: Permeability, Mean, Caco-2 B-A Perm
  Papp B→A at 2 h, 10 μM: 0.3 ×10⁻⁶ cm/s
U266B1 cells; Homo sapiens, 144 h
  GI50: 238 nM
U266B1 cells; U266B1 cells, 6 days
  AUC (nM * % relative viability): 712.6903 nM * % relative viability
U266B1 cells; U266B1 cells, 6 days, CellTiter-Glo
  LD50: 504.8119 nM
U266B1 cells; U266B1 cells, 6 days, negative = cell death vs T0
  RminAve: −94.2191%
PAMPA permeability
  Papp: < 0.1 ×10⁻⁶ cm/s
AMO-1 cells; AMO1 cells, 6 days
  AUC (nM * % relative viability): 797.7136 nM * % relative viability
AMO-1 cells; AMO1 cells, 6 days, CellTiter-Glo
  LD50: 1689.735 nM
AMO-1 cells; AMO1 cells, 6 days, negative = cell death vs T0
  RminAve: −99.4709%
AMO-1 cells; Homo sapiens, AMO1, 144 h
  GI50: 567 nM
